# In PMC8303187, “Anti-Inflammatory Effects of Compounds from Cudrania tricuspidata in HaCaT Human Keratinocytes” (International Journal of Molecular Sciences, 2021):
# Columns and labels:
# [1] = test system: IL-8 production in TNF-α + IFN-γ-treated HaCaT cells; assay: IL-8 production in TNF-α + IFN-γ-treated HaCaT cells (ELISA); type: cell-based, human; conditions: for IL-8 production: HaCaT cells pre-treated 3 h, then TNF-α + IFN-γ 24 h, result in words; for IC50: Homo sapiens, HaCaT cells pre-incubated with compound 3 h, then TNF-α + IFN-γ (20 ng/mL) 24 h, ELISA
# Method: Next, the effect of the 16 compounds from C. tricuspidata on IL-8 production in HaCaT cells were determined. Briefly, HaCaT cells were pre-incubated with different concentrations of the 16 compounds for 3 h. Thereafter, the cells were subjected to TNF-α + IFN-γ stimulation for 24 h. […] Compound 2, with its flavanone skeletons, has been studied for its cyclooxygenase and tyrosinase inhibitory effects. In a previous study, compound 2 altered the anti-neuroinflammatory response in microglia. Compound 6, a prenylated flavanone, has been reported to have apoptotic effects on A375.S2 melanoma cells and to lead to the induction of apoptotic cell death in KM12, Caco-2, HT29, HCC2998, HCT116, and SW48 cell lines. […] This is the first report on the biological action of compounds 2, 6, 12, 13, 4, and 14 on the inhibitory effects of skin inflammatory factors in skin HaCaT cells. Therefore, further mechanism studies of these six compounds in HaCaT cells were conducted.
# (§1) The cytokines and chemokines in IL-6, IL-8, CCL17 (TARC), and CCL5 (RANTES) HaCaT cells were detected using an enzyme-linked immunosorbent assay. The levels of these cytokines and chemokines were measured using commercial ELISA kits (BioLegend, San Diego, CA, USA), according to the manufacturer’s instructions.
# Figure S3. Effects of the 16 compounds from C. tricuspidata on IL-8 (A, B, and C) production in TNF-α+IFN-γ-treated HaCaT cells. The cells were pre-treated with the indicated concentrations of the C. tricuspidata compounds for 3 h, and then stimulated with TNF-α+IFN-γ (20 ng/mL) for 24 h. […] levels were determined as described in the Materials and Methods section. Data are expressed as the mean ± standard deviation of three experiments. *p < 0.05, **p < 0.01, and ***p < 0.001 compared with TNF- […]
# (1 picture or pasted object on this page, not shown here)
# [2] = test system: IκBα degradation in HaCaT cells; assay: Degradation of cytoplasmic IκBα in TNF-α + IFN-γ-treated HaCaT cells (Western blotting); type: cell-based, human; conditions: HaCaT cells pretreated 3 h, then TNF-α + IFN-γ (20 ng/mL) 10 min; Western blot
# Source text: (§2) The activation of NF-κB by TNF-α and/or IFN-γ results from high levels of IκB phosphorylation and the degradation of IκB in keratinocytes. NF-κB–mediated inflammation is a significant component of innate immunity and seems to be a final common pathway for the aggravation of the inflammatory response to stimuli in immune diseases of the skin [56]. To determine the potential mechanisms of the inhibition of TNF-α + IFN-γ-induced pro-inflammatory enzyme and the mediator levels by the six compounds from C. tricuspidata, their effects on the phosphorylation and degradation of cytoplasmic IκBα and on p65 translocation to the nucleus were investigated. […] In addition, compounds 13, 4, and 14 inhibited the phosphorylation of IκBα (Figure 5C,D). When HaCaT cells were exposed to TNF-α + IFN-γ, NF-κB p65 translocated from the cytoplasm to the nucleus.
# (§3) Figure 5 Effects of the six compounds from C. tricuspidata on the degradation of IκB-α (A,B), the phosphorylation of IκBα (C,D), and the translocation of NF-κB p65 to the nucleus (E,F) in HaCaT cells. Cells were pretreated with the six compounds from C. tricuspidata at the indicated concentrations for 3 h and stimulated with TNF-α + IFN-γ (20 ng/mL) for 10 min. IκBα, p-IκBα, and NF-κB p65 were analyzed using Western blotting, as described in the Materials and Methods section. Representative blots from four independent experiments are presented. The immunoblots were quantified using ImageJ software. The band intensity was normalized to that of actin or anti-proliferating cell nuclear antigen (PCNA). * p < 0.05, ** p < 0.01, *** p < 0.001 compared with TNF-α + IFN-γ only.
# (§4) Cells were harvested and pelleted via centrifugation at 200× g for 3 min, washed with PBS, and lysed in 20 mM Tris-HCl buffer (pH 7.4) containing a protease inhibitor mixture (0.1 mM phenylmethanesulfonyl fluoride, 5 mg/mL aprotinin, 5 mg/mL pepstatin A, and 1 mg/mL chymostatin). The protein concentration was determined using a protein assay dye reagent concentrate (#5000006; Bio-Rad Laboratories, Hercules, CA, USA). A total of 30 micrograms of protein from each sample was resolved using 7.5% and 12% sodium dodecyl sulfate-polyacrylamide gel electrophoresis. Thereafter, the proteins were electrophoretically transferred onto Hybond enhanced chemiluminescence (ECL) nitrocellulose membranes (Bio-Rad Laboratories). The membranes were blocked with 5% skimmed milk, and sequentially incubated with the relevant primary antibody and horseradish peroxidase-conjugated secondary antibody, prior to ECL detection (Pierce Biotechnology, Rockford, IL, USA).
# (§5) HaCaT cells were homogenized in PER-Mammalian Protein Extraction Buffer (1:20, w:v) (Pierce Biotechnology, Rockford, IL, USA) containing freshly added protease inhibitor cocktail I (EMD Biosciences, San Diego, CA, USA) and 1 mM phenylmethanesulfonyl fluoride. The cytosolic fractions were prepared using centrifugation at 16,000× g for 5 min at 4 °C, while the nuclear and cytoplasmic cell extracts were prepared using NE-PER nuclear and cytoplasmic extraction reagents, respectively (Pierce Biotechnology, Rockford, IL, USA).
# HaCaT cells = assay: Cell Counting Kit (CCK)-8 cell viability / cytotoxicity assay; conditions: CCK-8 assay, 24 h, concentration values that did not result in cytotoxicity
# Method: The cytotoxicity of the 16 compounds was evaluated using a Cell Counting Kit (CCK)-8 assay on HaCaT cells.
# To determine the viability of HaCaT cells, these were maintained at 2 × 10^4 cells/well, treated with the test compounds in the presence or absence of glutamate (5 mM), and cultured for 24 h. Subsequently, a CCK8 assay (Dojindo Laboratories, Kumamoto, Japan) was performed and the cells were incubated for 1 h. The absorbance was then measured at 450 nm.
# [3] = test system: NF-κB p65 translocation to the nucleus in HaCaT cells; assay: NF-κB p65 translocation to the nucleus in TNF-α + IFN-γ-treated HaCaT cells (Western blotting); type: cell-based, human; conditions: HaCaT cells pretreated 3 h, then TNF-α + IFN-γ (20 ng/mL) 10 min; Western blot
# Source text: as §2, §3, §4, §5
# [4] = test system: IκBα phosphorylation in HaCaT cells; assay: Phosphorylation of IκBα in TNF-α + IFN-γ-treated HaCaT cells (Western blotting); type: cell-based, human; conditions: HaCaT cells pretreated 3 h, then TNF-α + IFN-γ (20 ng/mL) 10 min; Western blot
# Source text: as §2, §3
# Cells were harvested and pelleted via centrifugation at 200× g for 3 min, washed with PBS, and lysed in 20 mM Tris-HCl buffer (pH 7.4) containing a protease inhibitor mixture (0.1 mM phenylmethanesulfonyl fluoride, 5 mg/mL aprotinin, 5 mg/mL pepstatin A, and 1 mg/mL chymostatin). The protein concentration was determined using a protein assay dye reagent concentrate (#5000006; Bio-Rad Laboratories, Hercules, CA, USA). […]
# [5] = test system: IL-6 production in TNF-α + IFN-γ-treated HaCaT cells; assay: IL-6 production in TNF-α + IFN-γ-treated HaCaT cells (ELISA); type: cell-based, human; conditions: for IL-6 production: HaCaT cells pre-treated 3 h, then TNF-α + IFN-γ 24 h, result in words; for IC50: Homo sapiens, HaCaT cells pre-incubated with compound 3 h, then TNF-α + IFN-γ (20 ng/mL) 24 h, ELISA
# Source text: The skin consists of two basic layers: the epidermis and dermis. The epidermis is mainly composed of keratinocytes. Pro-inflammatory cytokines are known to play an important role in the immune response in keratinocytes. Previous studies have reported the roles of TNF-α and IFN-γ in inducing NF-κB activation, which upregulates the production of IL-6 and IL-8 [25]. […] Accordingly, the effect of the 16 compounds from C. tricuspidata on IL-6 production in TNF-α + IFN-γ-treated HaCaT cells were determined. Briefly, HaCaT cells were pre-incubated with different concentrations of the 16 compounds for 3 h, and then stimulated with TNF-α + IFN-γ for 24 h.
# as §1
# Figure S2. Effects of the 16 compounds from C. tricuspidata on IL-6 production in TNF-α+IFN-γ-treated HaCaT cells (A, B, and C). Cells were pre-treated with the indicated concentrations of the 16 compounds from C. tricuspidata for 3 h and then stimulated with TNF-α+IFN-γ (20 ng/mL) for 24 h. IL-6 levels were determined as described in the Materials and Methods section. The results are presented as the mean ± standard deviation of three experiments. *p < 0.05, **p < 0.01, and ***p < 0.001 compared with TNF-
Compound,IL-8 production [1],IC50 [1] [µM],degradation of IκBα in the cytoplasm [2],Cytotoxicity (HaCaT cells) [µM],NF-κB p65 translocation to the nucleus [3],phosphorylation of IκBα [4],IL-6 production [5],IC50 [5] [µM]
"CC(C)=CCc1c(O)cc2c(c1O)C(=O)C[C@@H](c1ccc(O)cc1O)O2 [Compound 4, cudraflavanone B]",decreased,9.88 ± 3.22,inhibit,>20,significantly inhibited,inhibited,significantly decreased,> 20
"CC(C)=CCc1c(O)cc2oc(-c3ccc(O)cc3O)c(CC=C(C)C)c(=O)c2c1O [Compound 6, cudraflavone C]",decreased,2.16 ± 0.5,inhibit,>5,significantly inhibited,–,significantly decreased,2.78 ± 0.75
"C=CC(C)(C)c1c(OC)cc2oc3cc(O)c(O)cc3c(=O)c2c1O [Compound 13, 1,6,7-trihydroxy-2-(1,1-dimethyl-2-propenyl)-3-methoxyxanthone]",decreased,3.87 ± 0.96,inhibit,>40,no significant effect,inhibited,significantly decreased,9.69 ± 2.15
"C=CC(C)(C)c1c(O)cc(O)c2c(=O)c3cc(O)c(O)cc3oc12 [Compound 14, cudratricusxanthone L]",decreased,3.7 ± 0.7,inhibit,>20,significantly inhibited,inhibited,significantly decreased,9.86 ± 0.92
